{
  "source": "paper PMC6154605",
  "about": "“Multi-Anti-Parasitic Activity of Arylidene Ketones and Thiazolidene Hydrazines against Trypanosoma cruzi and Leishmania spp” (Molecules : A Journal of Synthetic Chemistry and Natural …, 2017)",
  "key": {"[1]": {"test_system": "J774.1 murine macrophages", "settings": "J774.1; read-out: IC50 ± SD Murine Macrophages; cited from earlier work"}, "cruzipain": {"molecular_target": "cruzipain (Trypanosoma cruzi, UniProt P25779)", "sequence (P25779 123-467)": "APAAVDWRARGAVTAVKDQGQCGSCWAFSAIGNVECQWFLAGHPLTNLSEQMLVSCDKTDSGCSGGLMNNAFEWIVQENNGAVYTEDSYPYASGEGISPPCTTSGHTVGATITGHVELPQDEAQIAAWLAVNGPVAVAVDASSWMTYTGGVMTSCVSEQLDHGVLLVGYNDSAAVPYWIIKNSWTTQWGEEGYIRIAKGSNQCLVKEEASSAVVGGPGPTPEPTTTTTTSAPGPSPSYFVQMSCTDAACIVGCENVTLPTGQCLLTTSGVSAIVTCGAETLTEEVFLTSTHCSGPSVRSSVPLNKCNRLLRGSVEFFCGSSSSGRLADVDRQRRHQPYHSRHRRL", "test": "Inhibition of T. cruzi cruzipain", "assay_type": "biochemical", "settings": "at 100 µM; read-out: Percentage of Inhibition Cruzipain", "method": "Cruzipain was purified to homogeneity from epimastigotes of the Tulahuen 2 strain by ConA–Sepharose affinity chromatography, as previously described. Cruzipain (2.5 μM ε = 58,285 M^−1cm^−1) was incubated in 50 mM acetate buffer pH 5.5 with 5 mM DTT, and 100 μM inhibitor were added, shaking the solution for 15 min at 27 °C. The derivatives were added as solutions in DMSO, and the controls contained the same solvent concentration. The concentration of DMSO never exceeded 1% in the reaction medium. L-leucylam-ido(4-guanidino)butane (E-64) was used as a positive control of inhibition. Then, the fluorogenic substrate Z-Phe-Arg 7-amido-4-methylcoumarin hydrochloride (Z-Phe-Arg-AMC) at 10 μM was added, and the fluorescence was measured during 10 min at intervals of 3 s (excitation at 380 nm and emission at 460 nm) using a Varioskan Flash Spectrophotometer. From the slope of the negative control, we calculated the total (100%) enzyme activity, while the slopes obtained in the presence of the compounds yielded the percentage of remaining enzyme activity. The percentage of enzyme inhibition was determined as […]. The experiments were done in duplicate."}, "[2]": {"test_system": "T. cruzi epimastigotes, Tulahuen 2 strain (genotype TcVI)", "settings": "cited from earlier work"}},
  "note": "Marks after values point to notes of the source that are not given here.",
  "data": [
    {"smiles": "C=CCn1c(-c2ccc(Cl)cc2)cs\\c1=N/N=C/C=C/c1ccco1", "note": "[GAT1033]", "values": [
      {"measurement": "IC50", "setting": "[1]", "result": "60 ± 6", "unit": "µM"},
      {"measurement": "inhibition at 100 µM", "setting": "cruzipain", "result": 0, "unit": "%"},
      {"measurement": "SI J774.1/ T. cruzi", "setting": "[2]; ratio IC50 mammalian cell / IC50 parasite (epimastigotes)", "result": "37 ^a"},
      {"measurement": "IC50", "setting": "[2]; read-out: IC50 ± SD Epimastigotes T. cruzi", "result": "1.6 ± 0.5", "unit": "µM"}
    ]}
  ]
}
